Measured values reported in patent publication US11242351B2, “Tricyclic inhibitors of the BCL6 BTB domain protein-protein interaction and uses thereof” (priority 2017, dated 2022).
Read-outs that look alike come from different tables or passages of the source.

What was measured:
[1] = system: BCL6 reporter construct in SuDHL4-3×BCL6-TK-Luc cells; assay: Cell-based luciferase assay (BCL6 reporter); settings: 48 h, read-out: Luc IC50
Method in brief: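 SuDHL4 cells stably carrying a 3×BCL6-site TK-promoter firefly luciferase reporter, 15,000 cells/well, dosed over 10 concentrations (top 10 μM) and cultured two days at 37° C, 5% CO2. Luciferase luminescence read after room-temperature equilibration with neolite reagent.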

Karpas422 cells = assay: Tumor cell growth inhibition assay; assay type: cell-based; settings: Homo sapiens, KARPAS-422, 144 h, read-out: GI Karpas EC50
Method in brief: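 Karpas422 cells were dosed over a 10-point concentration range (top 5 μM) and grown 6 days at 37 °C, 5% CO2, in Alpha-MEM with 10% FBS. Viability was read as ATPlite luminescence.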

[2] = biological target: BCL6 BTB domain (biotin-thrombin-BCL6 amino acids 1-129) (Homo sapiens (Human), UniProt P41182); assay: Surface Plasmon Resonance (SPR) assay; assay type: binding; settings: Biacore T200, single cycle kinetic analysis
Description: Surface Plasmon Resonance (SPR) Assay
SPR studies were performed using a Biacore™ T200 instrument (GE Health Sciences Inc.). […] The Biacore flow rate was set at 100 μl/min. […] Curve fitting and KD calculations were performed with the Biacore T200 Evaluation software (GE Health Sciences Inc).

[3] = SuDHL4-3×BCL6-TK-Luc cells, two days
[4] = Karpas422 cells, six days, ATPlite

SMILES | IC50 [1, 3] [nM] | EC50 (Karpas422 cells; [4]) [nM] | Kd [2] [nM] | IC50 [1] [nM] | EC50 (Karpas422 cells) [nM]
CCN1CCN(c2cc(NC(=O)Cn3cc(-c4cc(C(N)=O)c(O)c(F)c4F)c4c(=O)n5c(nc43)CCCCC5)c(Cl)c(F)n2)[C@@H](C)C1 [I-52, (S)-5-(1-(2-((3-chloro-6-(4-ethyl-2-methyl-piperazin-1-yl)-2-fluoropyridin-4-yl)amino)-2-oxoethyl)-4-oxo-4,6,7,8,9,10-hexahydro-1H-pyrrolo [2′,3′:4,5]pyrimido [1,2-a]azepin-3-yl)-3,4-difluoro-2-hydroxy-benzamide] | 820 | 1670 | 76.5 | – | –
C[C@H]1CNCCN1c1cc(NC(=O)Cn2cc(-c3cc(C(N)=O)c(O)c(F)c3F)c3c(=O)n4c(nc32)CCC4)c(Cl)c(F)n1 [I-53, (S)-5-(1-(2-((3-chloro-2-fluoro-6-(2-methyl-piperazin-1-yl)pyridin-4-yl)amino)-2-oxo-ethyl)-4-oxo-4,6,7,8-tetrahydro-1H-dipyrrolo [1,2-a:2′,3′-d]pyrimidin-3-yl)-3,4-difluoro-2-hydroxybenzamide] | 504 | 646 | 5.83 | – | –
C[C@H]1CN(C)C[C@H](C)N1c1cc(NC(=O)Cn2cc(-c3cc(C(N)=O)c(O)c(F)c3F)c3c(=O)n4c(nc32)CCC4)c(Cl)cn1 [I-54, 5-(1-(2-((5-chloro-2-((2S,6S)-2,4,6-trimethylpiperazin-1-yl)pyridin-4-yl)amino)-2-oxoethyl)-4-oxo-4,6,7,8-tetrahydro-1H-dipyrrolo[1,2-a:2′,3′-d]pyrimidin-3-yl)-3,4-difluoro-2-hydroxy-benzamide] | – | – | 97.6 | 5980 | 2000
C[C@H]1CN(C)CCN1c1cc(NC(=O)Cn2cc(-c3cc(F)c(O)c(C(N)=O)c3)c3c(=O)n4c(nc32)CCC4)c(Cl)c(F)n1 [I-55, (S)-5-(1-(2-((3-chloro-6-(2,4-dimethyl-piperazin-1-yl)-2-fluoropyridin-4-yl)amino)-2-oxoethyl)-4-oxo-4,6,7,8-tetrahydro-1H-dipyrrolo [1,2-a:2′,3′-d]pyrimidin-3-yl)-3-fluoro-2-hydroxybenzamide] | – | – | 1.5 | 13.5 | 16.6
CN1C[C@H]2CC[C@@H](C1)N2c1cc(NC(=O)Cn2cc(-c3cc(C(N)=O)c(O)c(F)c3F)c3c(=O)n4c(nc32)CCC4)c(Cl)cn1 [I-56, 5-(1-(2-((5-chloro-2-((1R,5S)-3-methyl-3,8-diazabicyclo[3.2.1]octan-8-yl)pyridin-4-yl)amino)-2-oxoethyl)-4-oxo-4,6,7,8-tetrahydro-1H-dipyrrolo[1,2-a:2′,3′-d]pyrimidin-3-yl)-3,4-difluoro-2-hydroxy-benzamide] | 684 | 586 | 38.7 | – | –
C[C@H]1CN(C)CCN1c1cc(NC(=O)Cn2cc(-c3cc(C(N)=O)c(O)c(F)c3F)c3c(=O)n4c(nc32)CC(C)(C)C4)c(Cl)c(F)n1 [I-57, (S)-5-(1-(2-((3-chloro-6-(2,4-dimethyl-piperazin-1-yl)-2-fluoropyridin-4-yl)amino)-2-oxoethyl)-7,7-dimethyl-4-oxo-4,6,7,8-tetrahydro-1H-dipyrrolo[1,2-a:2′,3′-d]pyrimidin-3-yl)-3,4-difluoro-2-hydroxy-benzamide] | – | – | 11.2 | 114 | 62.1
C[C@H]1COCCN1c1cc(NC(=O)Cn2cc(-c3cc(C(N)=O)c(O)c(F)c3F)c3c(=O)n4c(nc32)CC(C)(C)C4)c(Cl)c(F)n1 [I-58, (S)-5-(1-(2-((3-chloro-2-fluoro-6-(3-methyl-morpholino)pyridin-4-yl)amino)-2-oxoethyl)-7,7-dimethyl-4-oxo-4,6,7,8-tetrahydro-1H-dipyrrolo[1,2-a:2′,3′-d]pyrimidin-3-yl)-3,4-difluoro-2-hydroxy-benzamide] | 190 | 96.2 | 28.7 | – | –
C[C@H]1COCCN1c1cc(NC(=O)Cn2cc(-c3cc(Cl)c(O)c(C(N)=O)c3)c3c(=O)n4c(nc32)CC(C)(C)C4)c(Cl)c(F)n1 [I-59, (S)-3-chloro-5-(1-(2-((3-chloro-2-fluoro-6-(3-methylmorpho-lino)pyridin-4-yl)amino)-2-oxoethyl)-7,7-dimethyl-4-oxo-4,6,7,8-tetrahydro-1H-dipyrrolo[1,2-a:2′,3′-d]pyrimidin-3-yl)-2-hydroxybenzamide] | 190 | 48.8 | 23.4 | – | –
C[C@H]1CN(C)CCN1c1cc(NC(=O)Cn2cc(-c3cc(Cl)c(O)c(C(N)=O)c3)c3c(=O)n4c(nc32)CC(C)(C)C4)c(Cl)c(F)n1 [I-60, (S)-3-chloro-5-(1-(2-((3-chloro-6-(2,4-dimethylpiperazin-1-yl)-2-fluoropyridin-4-yl)amino)-2-oxoethyl)-7,7-dimethyl-4-oxo-4,6,7,8-tetrahydro-1H-dipyrrolo[1,2-a:2′,3′-d]pyrimidin-3-yl)-2-hydroxybenzamide] | – | – | 13.4 | 186 | 97.2
C[C@H]1CN(C)CCN1c1cc(NC(=O)Cn2cc(-c3cc(Cl)c(O)c(C(N)=O)c3)c3c(=O)n4c(nc32)CCC4)c(Cl)c(F)n1 [I-61, (S)-3-chloro-5-(1-(2-((3-chloro-6-(2,4-dimethylpiperazin-1-yl)-2-fluoropyridin-4-yl)amino)-2-oxoethyl)-4-oxo-4,6,7,8-tetrahydro-1H-dipyrrolo[1,2-a:2′,3′-d]pyrimidin-3-yl)-2-hydroxybenzamide] | 41.7 | 22.2 | 3.71 | – | –
C[C@H]1COCCN1c1cc(NC(=O)Cn2cc(-c3cc(Cl)c(O)c(C(N)=O)c3)c3c(=O)n4c(nc32)CCC4)c(Cl)c(F)n1 [I-62, (S)-3-chloro-5-(1-(2-((3-chloro-2-fluoro-6-(3-methylmorpho-lino)pyridin-4-yl)amino)-2-oxoethyl)-4-oxo-4,6,7,8-tetra-hydro-1H-dipyrrolo [1,2-a:2′,3′-d]pyrimi-din-3-yl)-2-hydroxybenzamide] | 78.5 | 31.2 | 7.17 | – | –
CC1Cc2nc3c(c(-c4cc(C(N)=O)c(O)c(F)c4F)cn3CC(=O)Nc3cc(N4CCN(C)C[C@@H]4C)nc(F)c3Cl)c(=O)n2C1 (stereo partly drawn) [I-63, 5-(1-(2-((3-chloro-6-((S)-2,4-dimethyl-piperazin-1-yl)-2-fluoropyridin-4-yl)amino)-2-oxoethyl)-7-methyl-4-oxo-4,6,7,8-tetrahydro-1H-dipyrrolo[1,2-a:2′,3′-d]pyrimidin-3-yl)-3,4-difluoro-2-hydroxy-benzamide] | 110 | 120 | 10.2 | – | –
CC1Cc2nc3c(c(-c4cc(C(N)=O)c(O)c(F)c4F)cn3CC(=O)Nc3cc(N4CCOC[C@@H]4C)nc(F)c3Cl)c(=O)n2C1 (stereo partly drawn) [I-64, 5-(1-(2-((3-chloro-2-fluoro-6-((S)-3-methylmorpholino)pyridin-4-yl)amino)-2-oxoethyl)-7-methyl-4-oxo-4,6,7,8-tetrahydro-1H-dipyrrolo [1,2-a:2′,3′-d]pyrimidin-3-yl)-3,4-difluoro-2-hydroxybenzamide] | 380 | 174 | 27.4 | – | –
CC1Cc2nc3c(c(-c4cc(Cl)c(O)c(C(N)=O)c4)cn3CC(=O)Nc3cc(N4CCN(C)C[C@@H]4C)nc(F)c3Cl)c(=O)n2C1 (stereo partly drawn) [I-65, 3-chloro-5-(1-(2-((3-chloro-6-((S)-2,4-dimethylpiperazin-1-yl)-2-fluoropyridin-4-yl)amino)-2-oxo-ethyl)-7-methyl-4-oxo-4,6,7,8-tetra-hydro-1H-dipyrrolo [1,2-a:2′,3′-d]pyrimi-din-3-yl)-2-hydroxy-benzamide] | 46.8 | 42.1 | 6.28 | – | –
